Measured values published in patent US20250339531A1, “DUX4 POLYPEPTIDES AND NUCLEIC ACIDS FOR TREATING INFLAMMATORY AND AUTOIMMUNE CONDITIONS” (Fred Hutchinson Cancer Center, priority 2021, published 2025).
“Also recorded” adds a separate entry of the source.

Legend:
Assay type in all cases: cell-based, human
[1] = system: HLA-E; experiment: Immunoblot of non-canonical MHC class I HLA-E; settings: MB135iDUX4 cells
Procedure: (§1) Protein samples were harvested in RIPA buffer [150 mM NaCl, 1% NP-40, 0.5% Na-deocycholate, 1% SDS, 25 mM Tris-HCl pH7.4] supplemented with protease and phosphatase inhibitor tablets (Pierce), followed by sonication in Diagenode Bioruptor. Lysate was cleared by centrifugation at 16000×g and quantified using a Pierce BCA assay (Thermo Fisher Scientific). Samples were run on NuPAGE precast polyacrylamide gels (Invitrogen) and transferred to PVDF membrane. Membranes were blocked in PBS containing 0.1% Tween-20 and 5% non-fat dry milk before overnight incubation at 4° C. with primary antibodies (see resource table for a list of antibodies used in this study). Membranes were incubated with horseradish peroxidase-conjugated secondary antibodies for 1 hour at room temperature and SuperSignal chemiluminescent substrate (Thermo Scientific) was used for detection on film with a Mini-medical 90 processor. Membranes were stripped with Restore Western Blot Stripping Buffer (Pierce).

[2] = system: MHC class I proteins (HLA-A/B/C); experiment: Immunoblot of IFNG-induced MHC class I protein, continuous or pulsed protocol, MB135 myoblasts; settings: MB135 cells; for suppression of IFNG-induced MHC class I protein, pulsed protocol: 4 h doxycycline pulse, IFNG added later for 16 h; for suppression of IFNG-induced MHC class I protein, continuous protocol: doxycycline 20 h, IFNG last 16 h
Procedure: (§2) In the “continuous” protocol (similar to the experiments shown in the prior FIGS. 1, 2, 4, 5, and 6), doxycycline is added to induce DUX4 expression at time 0 and four hours later IFNG is added for an additional 16 hours, resulting in 20 hours of continuous DUX4 induction with the last 16 hrs exposed to IFNG.
(§3) In the “pulsed” protocol, doxycycline is added at time 0 to induce DUX4 expression, but after four hours the media is changed to remove the doxycycline, resulting in a pulse of DUX4 mRNA and protein sufficient to induce DUX4 target gene expression (see Resnick et al., Cell Rep. 2019 Nov. 12; 29(7):1812-1820.e5). IFNG is added at 28 hours for a period of 16 hours prior to harvesting the cells. […] This difference is not likely to be due to different amounts of the DUX4 and mutant DUX4 proteins because at the time of harvest both DUX4 and the F67A mutant DUX4 protein levels have declined to similarly low amounts relative to the continuous protocol, but could be due to the activation of DUX4 target genes by the full-length DUX4 since the H3.X/Y proteins show persistent expression in the pulsed protocol.
as §1

[3] = system: polysome association of mRNAs; experiment: Polysome profiling with RNA-seq; settings: DUX4 pulse+IFNG versus IFNG
Procedure: Polysome profiling was performed using three 70% confluent 15 cm plates of MB135iDUX4 myoblasts per treatment condition (n=3). MB135iDUX4 myoblasts were pulsed with or without doxycycline for 4 hours, incubated for 48 hours, supplemented with 50 ng/mL IFNG for 16 hours, and harvested at a terminal time point of 68 hours. To harvest, culture medium was supplemented with 100 μg/mL cycloheximide (CHX; Sigma) and cells were incubated at 37° C. for 10 minutes. Media was aspirated and each 15 cm plate of adherent cells was rinsed with 25 mL ice-cold PBS supplemented with 100 μg/mL cycloheximide, lifted with 0.25% Trypsin-EDTA supplemented with CHX, and resuspended in growth media supplemented with CHX. Cells were pelleted at 300 RCF and washed twice with ice-cold PBS supplemented with CHX. Cell pellets were flash frozen in liquid nitrogen and stored at −80° C. Cells were lysed with Polysome Lysis Buffer (10 mM Tris pH 8, 140 mM NaCl, 7.5 mM MgCl2, 0.25% NP-40, 0.1% Triton X-100, 150 μg/mL CHX, 20 mM DTT, 640U/mL SUPERase-In RNase Inhibitor) and clarified before quantification with the Bio-Rad Protein Assay. 1.5 mg of clarified lysate was loaded onto a 10-50% sucrose gradient prepared in DEPC-treated water with 25 mM Tris pH 7.4, 25 mM NaCl, 5 mM MgCl2, 100 μg/mL heparin, and 2 mM DTT. Gradients were fractionated using a Biocomp Piston Gradient Fractionator. Samples were resuspended in Trizol and Drosophila S2 cells were added as an internal spike-in control. RNA was extracted using the Direct-zol RNA Miniprep Kit (Zymo Research). Relative mRNA abundance for each sample was normalized to Drosophila spike-in to account for differences in RNA extraction efficiency (Taruttis et al., 2017).
Total RNA was isolated using the NucleoSpin RNA kit (Machery-Nagel) or Direct-zol RNA Mini-Prep Kit (Zymo Research) according to manufacturer's instructions. RNA-seq libraries were prepared using the Illumina TruSeq RNA Sample Prep v2 Kit and sequenced using 50 bp paired-end sequencing on the Illumina NextSeq platform by the Fred Hutchinson Cancer Center Genomics Core.

[4] = system: immunoproteasome subunits PSMB8, PSMB9, and PSMB10; experiment: Immunoblot of IFNG-induced immunoproteasome subunits; settings: for suppression of IFNG-induced immunoproteasome subunit protein, pulsed protocol / suppression of IFNG-induced immunoproteasome subunit protein, continuous protocol: MB135 cells; for suppression of IFNG-induced immunoproteasome subunit protein, pulsed protocol: 4 h doxycycline pulse, later IFNG 16 h; for suppression of IFNG-induced immunoproteasome subunit protein, continuous protocol: doxycycline 20 h, IFNG last 16 h
Procedure: as §2, §3, §1

For “DUX4: human DUX4 protein SEQ ID NO:3 expressed from doxycycline inducible codon altered transgene SEQ ID NO:2”, the “effect on IFNG-induced HLA-E protein” value [1] was “does not suppress the noncanonical MHC class E (HLA-E); also recorded: maintaining HLA-E in multiple cell types”, the “suppression of IFNG-induced MHC class I protein, pulsed protocol” value [2] was “more profound suppression of the MHC class I proteins; also recorded: even more effectively in the pulsed protocol; also recorded: elicited the same degree of suppression when assayed forty-four hours later; also recorded: suppressed HLA-A/B/C proteins even a day later” and the “suppression of IFNG-induced MHC class I protein, pulsed protocol” value ([2]; listed as full-length DUX4) was “suppresses MHC class I expression as well, or slightly better, in the pulsed protocol than in the continuous protocol”. The “suppression of IFNG-induced MHC class I protein, pulsed protocol” value ([2]; listed as wildtype DUX4) was “suppressed MHC-I and immunoproteasome subunits”, the “suppression of IFNG-induced MHC class I protein, continuous protocol” value [2] was “modest suppression of MHC class I protein; also recorded: suppresses MHC class I proteins; also recorded: IFNG-induction of MHC-I and the immunoproteasome was suppressed; also recorded: MHC class I induction, but not HLA-E is blocked” and the “suppression of IFNG-induced MHC class I protein, continuous protocol” value ([2]; listed as full-length DUX4) was “suppress the IFNG induction of MHC class I expression”. For the same substance, the “suppression of IFNG-induced MHC class I protein, continuous protocol” value ([2]; listed as wildtype DUX4) was “suppressed IFNG-induced MHC-I and the immunoproteasome expression”, the “mRNAs reduced in the high polysome fraction” value ([3]; log 2FC<−1, p-adj<0.01) was 7765 genes and the “polysome-bound mRNAs significantly upregulated” value ([3]; log 2FC>1, p-adj<0.01) was 256. For the same substance, the “genes with decreased polysome association (high/sub ratio)” value ([3]; |log 2FC>1|, p-adj<0.01) was 5800 genes, the “genes with increased polysome association (high/sub ratio)” value ([3]; |log 2FC>1|, p-adj<0.01) was 323 genes and the “polysome association of specific mRNAs” value ([3]; high-to-sub polysome ratio) was “TOP mRNAs remain associated with polysomes; also recorded: HLA-A, HLA-B, and HLA-C mRNAs showed reduced polysome association; also recorded: PSMB8, PSMB9, and PSMB10 mRNAs remained associated with polysomes”. The “suppression of IFNG-induced immunoproteasome subunit protein, pulsed protocol” value [4] was “completely blocked; also recorded: elicited the same degree of suppression when assayed forty-four hours later; also recorded: completely block protein accumulation of PSMB9 and PSMB10”, the “suppression of IFNG-induced immunoproteasome subunit protein, pulsed protocol” value ([4]; listed as wildtype DUX4) was “suppressed MHC-I and immunoproteasome subunits” and the “suppression of IFNG-induced immunoproteasome subunit protein, continuous protocol” value [4] was “completely blocked; also recorded: IFNG-induction of MHC-I and the immunoproteasome was suppressed; also recorded: completely block protein accumulation of PSMB9 and PSMB10”. For the same substance, the “suppression of IFNG-induced immunoproteasome subunit protein, continuous protocol” value ([4]; listed as wildtype DUX4) was “suppressed IFNG-induced MHC-I and the immunoproteasome expression” and the “suppression of PSMB9 in PKR knockout background” value ([4]; MB135iDUX4 WT and PKR-KO cells, continuous or pulsed) was “evident in both wild-type (WT) and PKR-KO cells”.
